Literature values in patent publication US20070032466A1, “Drug containing chymase inhibitor as the active ingredient” (TEIJIN PHARMA LIMITED, priority 2003, published 2007).

What was measured:
[1] = system: hamster model of myocardial infarction; settings: administrated alone
[2] = system: canine model of myocardial infarction; settings: oral administration
[3] = system: mouse allergy model; settings: oral administration
[4] = system: new onset of diabetes; settings: large scale clinical tests (CARPPP, HOPE, LIFE studies)

For `CCOc1ccccc1CC1C(=O)N(C(=O)NC(c2ccc(C)cc2)c2ccc(C)cc2)C1C(=O)c1ccc(C(=O)O)cc1` (stereo not drawn) [4-[1-{[bis(4-methylphenyl)methyl]carbamoyl}-3-(2-ethoxybenzyl)-4-oxoazetizin-2-yloyl]benzoic acid], the “effect on a hamster model of myocardial infarction” value [1] is listed as “has an effect”.
In the case of `O=CNc1cnc(-c2ccccc2)n(CC(=O)NC(Cc2ccccc2)C(=O)C(=O)CCCOc2ccccn2)c1=O` (stereo not drawn) [III-I], the “effectiveness in a canine model of myocardial infarction” value [2] is listed as “effective”.
In the case of `COC(=O)c1ccc2oc(C(=O)C(Cc3ccccc3)NC(=O)Cn3c(-c4ccccc4OC)ncc(N)c3=O)nc2c1` (stereo not drawn) [IV-I], the “activity as a chymase inhibitor in a mouse allergy model” value [3] is given as “exhibit activity as a chymase inhibitor”.
In the case of `C[C@H](CS)C(=O)N1CCC[C@H]1C(=O)O` [captopril], the “suppression of new onset of diabetes” value [4] is given as “suppress new onset of diabetes”.
In the case of `CCCCc1nc(Cl)c(CO)n1Cc1ccc(-c2ccccc2-c2nn[nH]n2)cc1` [losartan], the “suppression of new onset of diabetes” value [4] is given as “suppress new onset of diabetes”.
In the case of `CCOC(=O)[C@H](CCc1ccccc1)N[C@@H](C)C(=O)N1[C@H](C(=O)O)C[C@@H]2CCC[C@@H]21` [ramipril], the “suppression of new onset of diabetes” value [4] is listed as “suppress new onset of diabetes”.
